IC50 data for 34 molecules are collected here from patent US20250129028A1, “COMPOUNDS AND METHODS FOR YAP/TEAD MODULATION AND INDICATIONS THEREFOR” (Opna Bio SA, priority 2022, published 2025).

In this experiment the test system is TEAD-dependent transcription. As to the kind of experiment: TEAD-dependent transcription cell-based reporter assay (MSTO-211H+12XGTIIC luciferase). The conditions noted are these: Homo sapiens; MSTO-211H+12XGTIIC cell line, luciferase signal normalized to cell viability, 24 hours compound incubation; read-out: MSTO-211H GMean IC50 (uM) Cell Assay Reporter Cell Variant: TEAD. The arrangement: species or system human. The essentials:
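MSTO-211H mesothelioma cells stably carrying a 12xGTIIC TEAD-response-element luciferase reporter, treated with serial compound dilutions for 24 h at 37 °C. Luminescence normalized to CellTiter-Fluor viability signal; % inhibition versus DMSO and 20 μM K-975 controls, IC50 by nonlinear regression.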
As usually defined, the IC50 is the concentration that gives 50% inhibition. In the case of `CS(=O)(=O)CCC(=O)N1CCc2ccc(Oc3ccc(C(F)(F)F)cc3)c(-c3cnn(CC4CC4)c3)c2C1` [P-0206, 1-(8-(1-(cyclopropyl-methyl)-1H-pyrazol-4-yl)-7-(4-(trifluorometh-yl)phenoxy)-3,4-dihydro-isoquinolin-2(1H)-yl)-3-(methylsulfonyl)-propan-1-one], the 50% inhibitory concentration (IC50) was in the range of 0.001 to 10 µM.

For the molecule `CC(C)NS(=O)(=O)N1CCc2ccc(Oc3ccc(C(F)(F)F)cc3)cc2C1` [P-0020, N-isopropyl-7-(4-(trifluoromethyl)phen-oxy)-3,4-dihydroiso-quinoline-2(1H)-sulfon-amide], the 50% inhibitory concentration (IC50) lay within 0.001 to 10 µM.

Turning to `C=CC(=O)N1CCCC(C(=O)N2CCc3ccc(Oc4ccc(C(F)(F)F)c(F)c4)cc3C2)C1` (stereo not shown) [P-0120, 1-(3-(7-(3-fluoro-4-(trifluoromethyl)phen-oxy)-1,2,3,4-tetrahydro-isoquinoline-2-carbon-yl)piperidin-1-yl)prop-2-en-1-one], the IC50 fell in the range of 0.001 to 10 µM.

Take `CS(=N)(=O)CCC(=O)N1CCc2ccc(Oc3ccc(C(F)(F)F)cc3)cc2C1` (stereo not shown) [P-0055, imino(methyl)(3-oxo-3-(7-(4-(trifluoromethyl)-phenoxy)-3,4-dihydroiso-quinolin-2(1H)-yl)prop-yl)-16-sulfanone]: the IC50 fell in the range of 0.001 to 10 µM.

As for `C=CC(=O)N1CC(C(=O)N2CCc3c(cccc3Oc3ccc(C(F)(F)F)cc3)C2)C1` [P-0255, 1-(3-(5-(4-(trifluorometh-yl)phenoxy)-1,2,3,4-tetrahydroisoquinoline-2-carbonyl)azetidin-1-yl)prop-2-en-1-one], the IC50 was 0.001 to 10 µM.

Take `O=C(NC1CCCC1)N1CCc2c(cccc2Oc2ccc(C(F)(F)F)cc2)C1` [P-0232, N-cyclopentyl-5-(4-(trifluoromethyl)phen-oxy)-3,4-dihydroisoquin-oline-2(1H)-carboxamide]: the IC50 lay in the range of 0.001 to 10 µM.

As for `O=C=CCC(=O)N1CCc2ccc(Oc3ccc(C(F)(F)F)cc3)cc2C1` [P-0166, 4-(7-(4-(trifluoromethyl)-phenoxy)-3,4-dihydroiso-quinolin-2(1H)-yl)but-1-ene-1,4-dione], the IC50 fell in the range of 0.001 to 10 µM.

Consider `O=C(Cc1ncc[nH]1)N1CCc2ccc(Oc3ccc(C(F)(F)F)cc3)cc2C1` [P-0165, 2-(1H-imidazol-2-yl)-1-(7-(4-(trifluoromethyl)-phenoxy)-3,4-dihydroiso-quinolin-2(1H)-yl)ethan-1-one], for which the IC50 was in the range of 0.001 to 10 µM.

In the case of `O=C(c1cocn1)N1CCc2ccc(Oc3ccc(C(F)(F)F)cc3)cc2C1` [P-0108, oxazol-4-yl(7-(4-(trifluoromethyl)phen-oxy)-3,4-dihydroisoquin-olin-2(1H)-yl)methanone], the IC50 fell in the range of 0.001 to 10 µM.

In the case of `O=C(CCc1cnc[nH]1)N1CCc2c(cccc2Oc2ccc(C(F)(F)F)cc2)C1` [P-0243, 3-(1H-imidazol-5-yl)-1-(5-(4-(trifluoromethyl)-phenoxy)-3,4-dihydroiso-quinolin-2(1H)-yl)pro-pan-1-one], the IC50 lay in the range of 0.001 to 10 µM.

As to `N#CCCC(=O)N1CCc2c(cccc2-c2ccc(C(F)(F)F)cc2)C1` [P-0273, 4-oxo-4-(5-(4-(trifluoromethyl)phenyl)-3,4-dihydroisoquinolin-2(1H)-yl)butanenitrile], the IC50 lay in the range of 0.001 to 10 µM.

Turning to `CC(C)NC(=O)N1CCc2ccc(Oc3ccc(C(F)(F)F)cc3)cc2C1` [P-0019, N-isopropyl-7-(4-(trifluoromethyl)phen-oxy)-3,4-dihydroiso-quinoline-2(1H)-carbox-amide], the IC50 lay in the range of 0.001 to 10 µM.

In the case of `COC(=O)CCS(=O)(=O)N1CCc2ccc(Oc3ccc(C(F)(F)F)cc3)cc2C1` [P-0050, methyl 3-((7-(4-(trifluoro-methyl)phenoxy)-3,4-dihydroisoquinolin-2(1H)-yl)sulfonyl)pro-panoate], the IC50 lay within 0.001 to 10 µM.

In the case of `CC(=O)N1CC=C(c2c(Oc3ccc(C(F)(F)F)cc3)ccc3c2CN(C(=O)CCS(C)(=O)=O)CC3)CC1` [P-0214, 1-(8-(1-acetyl-1,2,3,6-tetrahydropyridin-4-yl)-7-(4-(trifluoromethyl)-phenoxy)-3,4-dihydroiso-quinolin-2(1H)-yl)-3-(methylsulfonyl)propan-1-one], the 50% inhibitory concentration (IC50) was 10 to 100 µM.

For `CS(=O)(=O)CCC(=O)N1CCc2ccc(Oc3ccc(C(F)(F)F)cc3)cc2C1C1CCOCC1` (stereo not shown) [P-0211, 3-(methylsulfonyl)-1-(1-(tetrahydro-2H-pyran-4-yl)-7-(4-(trifluorometh-yl)phenoxy)-3,4-dihydro-isoquinolin-2(1H)-yl)-propan-1-one], the IC50 was 0.001 to 10 µM.

On to `O=C(NC1CCOC1)N1CCc2ccc(Oc3ccc(C(F)(F)F)cc3)cc2C1` (stereo not shown) [P-0038, N-(tetrahydrofuran-3-yl)-7-(4-(trifluorometh-yl)phenoxy)-3,4-dihydro-isoquinoline-2(1H)-carboxamide], for which the IC50 fell in the range of 0.001 to 10 µM.

As for `O=C(C1CNC1)N1CCc2ccc(Oc3ccc(C(F)(F)F)c(F)c3)cc2C1` [P-0144, azetidin-3-yl(7-(3-fluoro-4-(trifluoromethyl)phen-oxy)-3,4-dihydroisoquin-olin-2(1H)-yl)methanone], the 50% inhibitory concentration (IC50) lay within 0.001 to 10 µM.

In the case of `O=C1NC(=O)C(CC(=O)N2CCc3ccc(Oc4ccc(C(F)(F)F)cc4)cc3C2)N1` (stereo not shown) [P-0083, 5-(2-oxo-2-(7-(4-(trifluoromethyl)phen-oxy)-3,4-dihydroisoquin-olin-2(1H)-yl)ethyl)imid-azolidine-2,4-dione], the 50% inhibitory concentration (IC50) lay in the range of 0.001 to 10 µM.

For the molecule `CN1CCC(C(=O)N2CCc3ccc(Oc4ccc(C(F)(F)F)c(F)c4)cc3C2)C1` (stereo not shown) [P-0105, (7-(3-fluoro-4-(trifluoro-methyl)phenoxy)-3,4-dihydroisoquinolin-2(1H)-yl)(1-methylpyr-rolidin-3-yl)methanone], the 50% inhibitory concentration (IC50) lay within 0.001 to 10 µM.

For `CS(=O)(=O)C12CC(C(=O)N3CCc4ccc(Oc5ccc(C(F)(F)F)cc5)cc4C3)(C1)C2` [P-0089, (3-(methylsulfonyl)-bicyclo[1.1.1]pentan-1-yl)(7-(4-(trifluoro-methyl)phenoxy)-3,4-dihydroisoquinolin-2(1H)-yl)methanone], the IC50 lay within 0.001 to 10 µM.

For the molecule `Nc1nc(C(=O)N2CCc3c(cccc3-c3ccc(C(F)(F)F)cc3)C2)cs1` [P-0274], the IC50 lay in the range of 0.001 to 10 µM.

As for `CC(=O)N1CCC(c2c(Oc3ccc(C(F)(F)F)cc3)ccc3c2CN(C(=O)CCS(C)(=O)=O)CC3)C1` (stereo not shown) [P-0215, 1-(8-(1-acetylpyrrolidin-3-yl)-7-(4-(trifluorometh-yl)phenoxy)-3,4-dihydro-isoquinolin-2(1H)-yl)-3-(methylsulfonyl)pro-pan-1-one], the IC50 is 10 to 100 µM.

Consider `NS(=O)(=O)NCC(=O)N1CCc2ccc(Oc3ccc(C(F)(F)F)cc3)cc2C1` [P-0054, N-(2-(7-(4-(trifluorometh-yl)phenoxy)-3,4-dihydro-isoquinolin-2(1H)-yl)-2-oxoethyl)sulfamide], for which the IC50 was in the range of 0.001 to 10 µM.

For `CN1C(=O)SC(CC(=O)N2CCc3ccc(Oc4ccc(C(F)(F)F)c(F)c4)cc3C2)C1=O` (stereo not shown) [P-0138, 5-(2-(7-(3-fluoro-4-(trifluoromethyl)phen-oxy)-3,4-dihydroisoquin-olin-2(1H)-yl)-2-oxoeth-yl)-3-methylthiazolidine-2,4-dione], the IC50 was 0.001 to 10 µM.

On to `CS(=O)(=O)CCC(=O)N1CCc2ccc(Oc3ccc(C(F)(F)F)cc3)c(Br)c2C1` [P-0205, 1-(8-bromo-7-(4-(trifluoromethyl)phen-oxy)-3,4-dihydroisoquin-olin-2(1H)-yl)-3-(methyl-sulfonyl)propan-1-one], for which the IC50 was 0.001 to 10 µM.

On to `O=C1CCC(C(=O)N2CCc3ccc(Oc4ccc(C(F)(F)F)cc4)cc3C2)CN1` (stereo not shown) [P-0129, 5-(7-(4-(trifluoromethyl)-phenoxy)-1,2,3,4-tetra-hydroisoquinoline-2-carbonyl)piperidin-2-one], for which the half-maximal inhibitory concentration (IC50) fell in the range of 0.001 to 10 µM.

Take `C[C@@H](CO)NC(=O)N1CCc2c(cccc2Oc2ccc(C(F)(F)F)cc2)C1` [P-0268, (S)-N-(1-hydroxypropan-2-yl)-5-(4-(trifluorometh-yl)phenoxy)-3,4-dihydro-isoquinoline-2(1H)-carboxamide]: the IC50 is 0.001 to 10 µM.

Regarding `CCCCC(=O)N1CCc2ccc(Oc3ccc(C(F)(F)F)cc3)cc2C1` [P-0023, 1-(7-(4-(trifluorometh-yl)phenoxy)-3,4-dihydro-isoquinolin-2(1H)-yl)-pentan-1-one], the IC50 is 0.001 to 10 µM.

With `O=C(CCn1cnnc1)N1CCc2c(cccc2Oc2ccc(C(F)(F)F)cc2)C1` [P-0250, 3-(4H-1,2,4-triazol-4-yl)-1-(5-(4-(trifluoromethyl)-phenoxy)-3,4-dihydro-isoquinolin-2(1H)-yl)-propan-1-one], the half-inhibitory concentration (IC50) is 0.001 to 10 µM.

In the case of `O=C(Cc1cnc[nH]1)N1CCc2ccc(Oc3ccc(C(F)(F)F)c(F)c3)cc2C1` [P-0150, 1-(7-(3-fluoro-4-(trifluoromethyl)phen-oxy)-3,4-dihydroisoquin-olin-2(1H)-yl)-2-(1H-imidazol-5-yl)ethan-1-one], the IC50 lay within 0.001 to 10 µM.

For `CS(=O)(=O)NCC(=O)N1CCc2ccc(Oc3ccc(C(F)(F)F)cc3)cc2C1` [P-0071, N-(2-oxo-2-(7-(4-(trifluoromethyl)phen-oxy)-3,4-dihydroisoquin-olin-2(1H)-yl)ethyl)-methanesulfonamide], the 50% inhibitory concentration (IC50) was in the range of 0.001 to 10 µM.

Regarding `N#CCCC(=O)N1CCc2ccc(Oc3ccc(C(F)(F)F)cc3)cc2C1` [P-0040, 4-oxo-4-(7-(4-(trifluoro-methyl)phenoxy)-3,4-dihydroisoquinolin-2(1H)-yl)butanenitrile], the IC50 is 0.001 to 10 µM.

Regarding `O=C(c1cnco1)N1CCc2ccc(Oc3ccc(C(F)(F)F)cc3)cc2C1` [P-0122, oxazol-5-yl(7-(4-(trifluoromethyl)phen-oxy)-3,4-dihydroisoquin-olin-2(1H)-yl)methanone], the IC50 fell in the range of 0.001 to 10 µM.

Consider `CCC(=O)N1CCc2ccc(Oc3ccc(C(F)(F)F)cc3)cc2C1` [P-0014, 1-(7-(4-(trifluorometh-yl)phenoxy)-3,4-dihydroisoquinolin-2(1H)-yl)propan-1-one], for which the IC50 was 0.001 to 10 µM.
